Like-named read-outs stand apart in the source and are kept apart here.

One experiment concerns the target T1, BACE1 (Homo sapiens, UniProt P56817).
T1 construct: endogenous in cells; host or cells: SH-SY5Y (ATCC CRL2266) stably expressing human APP695Wt
The experiment in a line: SH-SY5YAPP695Wt Whole Cell Assay (Abeta ELISA). Format: cell-based. As to conditions: SH-SY5Y cells stably expressing human APP695Wt, 24 hours incubation, n=6. Here is the method:
(§1) To assess selectivity of BACE1 over BACE2, the test compound is evaluated in FRET assays using specific substrates for BACE1 and BACE2 as described below. For in vitro enzymatic and cellular assays, the test compound is prepared in DMSO to make up a 10 mM stock solution. The stock solution is serially diluted in DMSO to obtain a ten-point dilution curve with final compound concentrations ranging from 10 μM to 0.05 nM in a 96-well round-bottom plate before conducting the in vitro enzymatic and whole cell assays.
The routine whole cell assay for the measurement of inhibition of BACE1 activity utilizes the human neuroblastoma cell line SH-SY5Y (ATCC Accession No. CRL2266) stably expressing a human APP695Wt cDNA. Cells are routinely used up to passage number 6 and then discarded.
SH-SY5YAPP695Wt cells are plated in 96 well tissue culture plates at 5.0×10^4 cells/well in 200 μL culture media (50% MEM/EBSS and Ham's F12, 1× each sodium pyruvate, non-essential amino acids and NaHCO3 containing 10% FBS). The following day, media is removed from the cells, fresh media added then incubated at 37° C. for 24 hours in the presence/absence of test compound at the desired concentration range.
At the end of the incubation, conditioned media are analyzed for evidence of beta-secretase activity by analysis of Abeta peptides 1-40 and 1-42 by specific sandwich ELISAs. […]
(In general: ELISA stands for enzyme-linked immunosorbent assay.)

The next experiment addresses T2, Human BACE1(1-460):Fc (Homo sapiens, UniProt P56817).
T2 construct: made in house; host or cells: HEK293 (transient transfection, conditioned medium)
The experiment in a line: BACE1 FRET Assay. It counts as biochemical. As to conditions: purified recombinant huBACE1:Fc, FRET substrate based on APP sequence, pH 4.6; mean ± standard deviation of the mean (0.035), n=5. Here is the method:
as §1
Human BACE1 (accession number: AF190725) and human BACE2 (accession number: AF 204944) are cloned from total brain cDNA by RT-PCR. The nucleotide sequences corresponding to amino acid sequences #1 to 460 are inserted into the cDNA encoding human IgG1 (Fc) polypeptide (Vassar et al., Science, 286, 735-742 (1999)). […]
Conditioned media of HEK293 cells transiently transfected with huBACE1:Fc or huBACE2:Fc cDNA are collected. […] The purity of the final product is assessed by electrophoresis in 4-20% Tris-Glycine SDS-PAGE. […]
Serial dilutions of the test compound are prepared as described above. […] The RFU of the mixture at time 0 is recorded at excitation wavelength 355 nm and emission wavelength 460 nm, after brief mixing on a plate shaker. […] The RFU at the end of incubation is recorded with the same excitation and emission settings used at time 0. […]

T1 sequence (P56817 46-501): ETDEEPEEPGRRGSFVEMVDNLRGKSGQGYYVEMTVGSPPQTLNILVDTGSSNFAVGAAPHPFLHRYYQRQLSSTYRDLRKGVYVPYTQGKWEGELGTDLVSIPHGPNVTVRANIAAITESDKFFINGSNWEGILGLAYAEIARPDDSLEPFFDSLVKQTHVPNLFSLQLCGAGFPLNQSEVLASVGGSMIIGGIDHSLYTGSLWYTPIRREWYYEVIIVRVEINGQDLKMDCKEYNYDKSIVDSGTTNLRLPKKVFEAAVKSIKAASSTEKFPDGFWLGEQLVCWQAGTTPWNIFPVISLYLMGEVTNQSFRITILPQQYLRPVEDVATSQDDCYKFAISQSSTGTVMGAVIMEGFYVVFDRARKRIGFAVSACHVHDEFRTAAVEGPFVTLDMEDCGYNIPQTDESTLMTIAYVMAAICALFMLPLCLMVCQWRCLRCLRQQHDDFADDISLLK
T2 sequence (P56817 22-460): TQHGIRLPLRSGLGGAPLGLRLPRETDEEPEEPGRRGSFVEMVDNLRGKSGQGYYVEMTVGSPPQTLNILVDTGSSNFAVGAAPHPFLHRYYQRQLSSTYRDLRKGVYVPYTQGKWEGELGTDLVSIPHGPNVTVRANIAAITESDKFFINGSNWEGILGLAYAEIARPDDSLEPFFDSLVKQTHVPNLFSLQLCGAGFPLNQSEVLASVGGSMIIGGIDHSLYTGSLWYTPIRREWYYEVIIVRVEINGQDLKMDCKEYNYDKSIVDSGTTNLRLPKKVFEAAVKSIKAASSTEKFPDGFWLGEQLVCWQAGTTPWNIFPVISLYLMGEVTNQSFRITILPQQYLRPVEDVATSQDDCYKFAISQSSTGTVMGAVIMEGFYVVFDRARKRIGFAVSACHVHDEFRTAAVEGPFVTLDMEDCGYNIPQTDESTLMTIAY

As usually defined, the IC50 is the concentration that gives 50% inhibition. Regarding `CC(F)(F)[C@H]1C[C@H]2CSC(N)=N[C@@]2(c2cc(NC(=O)c3ccc(C#N)cn3)ccc2F)CO1` [Example 1, N-[3-[(4aR,6R,8aS)-2-Amino-6-(1,1-difluoroethyl)-4a,5,6,8-tetrahydro-4H-pyrano[3,4-d][1,3]thiazin-8a-yl]-4-fluoro-phenyl]-5-cyano-pyridine-2-carboxamide], the IC50 on BACE1 (Abeta 1-40 in conditioned media, mean ± standard deviation of the mean (0.0104), read-out: IC50 for SH-SY5YAPP695Wt A-beta (1-40) ELISA) was 26 pM; at BACE1 (Abeta 1-42 in conditioned media, mean ± standard deviation of the mean (0.0187), read-out: IC50 for SH-SY5YAPP695Wt A-beta (1-42) ELISA) it was 31.3 pM; on Human BACE1(1-460):Fc it was 263 pM.

The record behind these values is US20210355138A1, “AMINOTHIAZINIES AND THEIR USE AS BACE1 INHIBITORS” (Eli Lilly and Company, priority 2016, published 2021).
